Source: patent publication US20240300904A1, “PYRIDAZINONES FOR THE TREATMENT OR PREVENTION OF HYPERTENSION” (UNIVERSITETET I OSLO, priority 2021, published 2024)

Key:
rat aortic rings = assay: Vasorelaxation: ANP-mediated relaxation of rat aortic rings; conditions: conc. response of ANP in the absence (ANP) or presence of 10 μM compound, L-NAME present
Method: Male Sprague-Dawley (6-8 weeks old) rats were killed by cervical dislocation. The thoracic aorta was dissected and rings (˜4 mm length) mounted in organ baths containing physiological salt solution (PSS; composition in mM: NaCl 119, KCl 4.7, CaCl2 2.5, MgSO4 1.2, NaHCO3 25, KH2PO4 1.2, and glucose 5.5), maintained at 37° C. and gassed with 5% CO2 in O2. Changes in isometric tension were measured in the tissues under a basal tension of 1 g. After equilibration, vessels were repeatedly contracted with KCl (48 mM) until responses were reproducible. A cumulative concentration-response curve was then constructed to the thromboxane receptor agonist 9,11-dideoxy-11α,9α-epoxymethano-prostaglandin F2α (U46619; 10 nm-1 μM). Arteries were then treated with the nitric oxide synthase (NOS) inhibitor L-NG-nitroarginine methyl ester (300 μM; to block the production of endogenous nitric oxide) and pre-contracted with an EC80 concentration of U46619. Once a stable response was achieved, cumulative concentration-response curves were constructed to ANP (0.001-1 μM) in the absence or presence of Compound 1 or Compound 2 (all 10 μM, incubated for 30 min prior to the administration of ANP).

β1-adrenergic receptor = molecular target: T1, β1-adrenergic receptor (Homo sapiens, UniProt P08588); assay: Safety pharmacology panel (SafetyScan E/IC50 ELECT); type: cell-based; conditions: minor activity; 78-target panel
T1 construct: purchased Discover X/Eurofins SafetyScan E/IC50 ELECT
T1 sequence (P08588 whole entry): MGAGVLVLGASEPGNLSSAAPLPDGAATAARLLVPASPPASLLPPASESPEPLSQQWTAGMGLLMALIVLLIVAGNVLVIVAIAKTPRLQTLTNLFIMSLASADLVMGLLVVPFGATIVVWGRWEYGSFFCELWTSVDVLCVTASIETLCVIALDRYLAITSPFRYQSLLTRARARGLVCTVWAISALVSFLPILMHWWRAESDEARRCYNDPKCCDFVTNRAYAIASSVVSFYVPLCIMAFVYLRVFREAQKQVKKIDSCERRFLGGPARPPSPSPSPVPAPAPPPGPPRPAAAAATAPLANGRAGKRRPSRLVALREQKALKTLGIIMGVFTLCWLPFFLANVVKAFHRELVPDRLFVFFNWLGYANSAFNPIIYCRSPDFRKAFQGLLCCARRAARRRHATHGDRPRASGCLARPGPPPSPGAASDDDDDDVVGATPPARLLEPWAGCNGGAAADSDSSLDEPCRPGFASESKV

β2-adrenergic receptor = molecular target: T2, β2-adrenergic receptor (Homo sapiens, UniProt P07550); assay: as above; type: cell-based; conditions: minor activity; 78-target panel
T2 construct: purchased Discover X/Eurofins SafetyScan E/IC50 ELECT
T2 sequence (P07550 whole entry): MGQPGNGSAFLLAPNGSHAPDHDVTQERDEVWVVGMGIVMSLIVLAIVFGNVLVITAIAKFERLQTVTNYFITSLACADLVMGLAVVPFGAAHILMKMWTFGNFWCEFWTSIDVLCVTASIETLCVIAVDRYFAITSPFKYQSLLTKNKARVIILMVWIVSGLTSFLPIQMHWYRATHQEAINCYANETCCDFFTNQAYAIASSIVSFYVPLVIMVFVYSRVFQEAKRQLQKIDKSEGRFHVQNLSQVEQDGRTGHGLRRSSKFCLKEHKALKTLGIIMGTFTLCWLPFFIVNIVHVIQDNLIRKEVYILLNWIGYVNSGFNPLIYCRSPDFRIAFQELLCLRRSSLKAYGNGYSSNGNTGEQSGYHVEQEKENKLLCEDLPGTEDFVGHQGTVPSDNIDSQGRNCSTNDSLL

[1] = molecular target: T3, human (h) natriuretic peptide receptor A (hNPR-A) (Homo sapiens, UniProt P16066); assay: AlphaScreen assay for cGMP: BNP-mediated NPR-A activity (cGMP production); type: cell-based; conditions: conc. response of compound + 0.1 nM BNP
T3 construct: expressed in transfected cells
T3 sequence (P16066 33-1061): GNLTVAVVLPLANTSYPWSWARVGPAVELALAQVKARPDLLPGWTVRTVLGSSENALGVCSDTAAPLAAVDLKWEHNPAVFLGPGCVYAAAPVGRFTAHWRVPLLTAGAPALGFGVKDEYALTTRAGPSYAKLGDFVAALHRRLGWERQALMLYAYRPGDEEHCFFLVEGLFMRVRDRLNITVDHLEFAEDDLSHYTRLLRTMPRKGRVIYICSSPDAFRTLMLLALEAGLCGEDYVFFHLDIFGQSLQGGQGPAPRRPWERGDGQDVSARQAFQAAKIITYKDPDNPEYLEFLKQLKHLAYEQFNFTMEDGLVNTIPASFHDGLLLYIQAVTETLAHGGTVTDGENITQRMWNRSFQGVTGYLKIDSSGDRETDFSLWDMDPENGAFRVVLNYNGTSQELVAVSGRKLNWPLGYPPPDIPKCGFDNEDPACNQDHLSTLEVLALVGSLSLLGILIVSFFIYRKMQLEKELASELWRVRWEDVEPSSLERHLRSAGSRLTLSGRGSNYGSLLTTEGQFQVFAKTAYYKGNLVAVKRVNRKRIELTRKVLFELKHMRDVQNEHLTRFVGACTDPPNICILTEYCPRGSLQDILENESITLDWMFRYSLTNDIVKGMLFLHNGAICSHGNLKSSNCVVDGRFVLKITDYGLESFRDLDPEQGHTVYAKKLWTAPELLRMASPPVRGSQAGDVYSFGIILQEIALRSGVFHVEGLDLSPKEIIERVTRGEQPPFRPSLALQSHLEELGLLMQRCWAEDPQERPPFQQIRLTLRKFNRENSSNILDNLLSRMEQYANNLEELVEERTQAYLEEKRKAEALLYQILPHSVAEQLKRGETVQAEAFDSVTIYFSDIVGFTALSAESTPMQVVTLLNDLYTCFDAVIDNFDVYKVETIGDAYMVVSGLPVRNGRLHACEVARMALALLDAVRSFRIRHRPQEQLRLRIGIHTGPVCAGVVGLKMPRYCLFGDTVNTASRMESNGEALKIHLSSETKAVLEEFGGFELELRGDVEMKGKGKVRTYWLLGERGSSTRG
T3 sequence (P16860 103-134 partner limits assumed): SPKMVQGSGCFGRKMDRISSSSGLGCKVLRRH
Method: QBIHEK293A cells stably transfected with human (h) natriuretic peptide receptor A (hNPR-A) and hNPR-B were made as described in Bach et al., Naunyn Schmiedebergs Arch. Pharmacol. 2014; 387:5-14. Cells were grown in DMEM (Dulbecco's Modified Eagle's Medium, Gibco®, ThermoFischer Scientific) supplemented with 10% Fetal Bovine Serum (FBS), 100 U/ml penicillin, 0.1 mg/ml streptomycin, and 0.4 mg/ml G418 (geneticin) as selection antibiotic.
The AlphaScreen assay for cGMP (Perkin Elmer) was performed as described in Bach et al. (see above). NPR-A and NPR-B expressing HEK293 cells were split the day before the experiment and harvested using an EDTA solution (Versene, Invitrogen, ThermoFischer Scientific). A final concentration of 6000 cells/well was re-suspended in stimulation buffer (5 mM HEPES in HBSS at pH 7.4, 0.1% BSA) with IBMX (0.7 mM final). Compounds were dissolved in stimulation buffer and added to wells in increasing concentrations. Cells were incubated with the indicated compounds 20 minutes before addition of agonists (human BNP, human CNP or human proBNP) in various concentrations. Cells were stimulated for 20 minutes with agonist before the reactions were stopped (i.e. cells lysed) by adding the AlphaScreen Acceptor bead mix (Acceptor beads-anti-cGMP antibody and 0.5% Tween-20 in 5 mM HEPES buffer at pH 7.4). After 1 hour incubation, the Donor bead mix (Donor beads, biotinylated cGMP, 0.5% Tween-20 in 5 mM HEPES buffer at pH 7.4) was added (40 μl total volume) and incubation continued for 2 hours. The luminescence signals were analyzed quantitatively by reading of the plates on the EnVision® Multilabel Plate Reader (Perkin Elmer) using AlphaScreen emission 570 nm filter.

dopamine D1-receptor = molecular target: T4, dopamine D1-receptor (Homo sapiens, UniProt P21728); assay: Safety pharmacology panel (SafetyScan E/IC50 ELECT); type: cell-based; conditions: minor activity; 78-target panel
T4 construct: purchased Discover X/Eurofins SafetyScan E/IC50 ELECT
T4 sequence (P21728 whole entry): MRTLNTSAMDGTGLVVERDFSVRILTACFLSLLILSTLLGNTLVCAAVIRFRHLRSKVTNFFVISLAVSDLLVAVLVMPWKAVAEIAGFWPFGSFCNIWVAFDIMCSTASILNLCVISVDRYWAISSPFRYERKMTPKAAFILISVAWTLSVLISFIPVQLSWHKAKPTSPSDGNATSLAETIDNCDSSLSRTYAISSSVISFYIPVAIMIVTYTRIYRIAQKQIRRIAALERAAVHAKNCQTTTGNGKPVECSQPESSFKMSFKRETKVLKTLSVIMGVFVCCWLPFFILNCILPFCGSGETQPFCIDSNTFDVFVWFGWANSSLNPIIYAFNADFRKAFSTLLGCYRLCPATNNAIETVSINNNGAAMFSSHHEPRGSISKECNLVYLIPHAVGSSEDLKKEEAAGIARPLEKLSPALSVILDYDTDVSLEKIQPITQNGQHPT

HeLa cells = assay: MTT assay (cytotoxicity); type: cell-based; conditions: 24 and 48 h, compared with compounds 3 and 11
Method: Cells were incubated for 24 and 48 h with increasing concentrations of the indicated compound. The data represent formazan formation (absorbance) as a percentage of the negative control (1% DMSO).
The MTT (3-(4,5-dimethylthiazol-2-yl)-2,5-diphenyltetrazolium bromide) tetrazolium reduction assay was used to measure cytotoxicity of the compounds in vitro. Viable cells with active metabolism convert MTT into a purple colored formazan product with an absorbance maximum near 570 nm. HeLa cells were plated in 96-well plates in culture medium (DMEM (Dulbecco's Modified Eagle's Medium, Gibco®, ThermoFischer Scientific) supplemented with 10% Fetal Bovine Serum (FBS), 100 U/ml penicillin, 0.1 mg/ml streptomycin) the day before experiments. Cells were incubated for 24 or 48 h at 37° C. with increasing concentrations of each compound (in 1% DMSO). 1% DMSO and 20 mM H2O2 in culture medium were used as negative and positive control, respectively. MTT solution at a final concentration of 0.45 mg/ml was added to the wells and cells incubated for 1 to 4 hours at 37° C. Solubilization solution (40% (vol/vol) dimethylformamide (DMF), 2% (vol/vol) glacial acetic acid and 16% (wt/vol) sodium dodecyl sulfate (SDS)) was added to each well to dissolve formazan crystals. Absorbance was measured at 570 nm.

[2] = Cytotoxicity screening (Cyprotex Discovery Ltd.); type: cell-based

Row | EC50 ([1]; NPR-A-expressing HEK293 cells, read-out: -LogEC50 (compound) (converted)) [µM] | Emax ([1]; percentage of maximum BNP-mediated cGMP production, read-out: Max Response) [%] | Compound | -LogEC50 (ANP) (rat aortic rings) | IC50 (β1-adrenergic receptor) [µM] | IC50 (β2-adrenergic receptor) [µM] | IC50 (dopamine D1-receptor) [µM] | toxicity in MTT assay relative to corresponding dichloro compounds (HeLa cells) | non-cytotoxic concentration relative to EC50 at the target ([2]; 15 μM versus EC50 of compound 24 at the target) | cytotoxic effects (cell count, nuclear size, DNA structure, cell membrane permeability, mitochondrial mass, mitochondrial membrane potential, cytochrome c) ([2]; at concentrations below 15 μM)
1 | – | – | ANP: atrial natriuretic peptide, endogenous NPR-A agonist used in vasorelaxation | 8.3 | – | – | – | – | – | –
2 | 0.2 | 37.8 | O=C(Cn1nccc(Cl)c1=O)c1ccc(Cl)cc1Cl [Compound 24, 4-chloro-2-(2-(2,4-dichlorophenyl)-2-oxoethyl) pyridazin-3(2H)-one] | – | > 6 | > 6 | > 6 | lower toxicity | 70-80 fold | did not show any cytotoxic effects
